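Five compound concentrations were applied to cells in 96-well plates for 48 hours; endpoints were derived by simple linear interpolation of the resulting dose-response curve. Here, GI50 denotes the concentration required for 50% inhibition of growth.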 The source made the active and inactive calls. No stated cut-off is given here; in the data, active = GI50 up to about 1.1 µM and inactive = higher.
Columns and labels:
Assay in all cases: NCI tumour cell line growth inhibition, 48 h
[1] = tested on: DMS-114
[2] = tested on: DMS-273
[3] = tested on: HL-60
[4] = tested on: KM12
[5] = tested on: LXFL 529
[6] = tested on: MOLT-4
[7] = tested on: Malme-3M
[8] = tested on: NCI-H522
[9] = tested on: OVCAR-4
[10] = tested on: RPMI-8226
[11] = tested on: SF-268
[12] = tested on: SF-295
[13] = tested on: SK-MEL-5
[14] = tested on: SNB-19
[15] = tested on: TK-10
[16] = tested on: U-251
[17] = tested on: XF498

Measured: GI50

COC(=O)C(C)NP(=O)(N1CC1)N1CC1 (centres undefined)
inactive: [1] 66.4 µM | [2] 91 µM | [3] 32.7 µM | [4] > 100 µM | [5] > 100 µM | [6] 40.3 µM | [7] > 100 µM | [8] > 100 µM | [9] > 100 µM | [10] > 100 µM | [11] > 100 µM | [12] 92.5 µM | [13] > 100 µM | [14] > 100 µM | [15] > 100 µM | [16] > 100 µM | [17] > 100 µM

COc1ccc([C@H]2c3cc4c(cc3OC(O)(CO)[C@H]2C(=O)O)OCO4)c(OC)c1.COc1ccc([C@H]2c3cc4c(cc3OC3(O)COC(=O)[C@@H]23)OCO4)c(OC)c1 (some centres undefined)
inactive: [1] > 100 µM | [2] > 100 µM | [3] 45.6 µM | [4] > 100 µM | [5] > 100 µM | [6] 61.5 µM | [7] > 100 µM | [9] > 100 µM | [10] 41.9 µM | [11] > 100 µM | [12] > 100 µM | [13] > 100 µM | [14] > 100 µM | [15] > 100 µM | [16] 41.9 µM | [17] > 100 µM

CSc1nc(NC2OCC(OC(C)=O)C(OC(C)=O)C2OC(C)=O)c(/N=C(\C)C(C)=O)c(=O)[nH]1 (centres undefined)
inactive: [1] > 100 µM | [2] > 100 µM | [3] > 100 µM | [4] > 100 µM | [5] > 100 µM | [6] > 100 µM | [7] > 100 µM | [9] > 100 µM | [10] > 100 µM | [11] > 100 µM | [12] > 100 µM | [13] > 100 µM | [14] > 100 µM | [15] > 100 µM | [16] > 100 µM | [17] > 100 µM
